Measurements as given in PMC12304285 (British Journal of Cancer, 2025).
Values joined by “and” are separate entries in the source; they are usually repeats but may differ in a detail not shown here. Equal entries are not always repeated. “Also recorded” adds a separate entry of the source. Where two headings read alike, the source gives them in different places.

Legend:
[1] = test system: patients with advanced cancer
Experimental: A single dose was administered during Cycle 0 and was followed by a drug washout period lasting 3–7 days. […] If either of these conditions was not met, the cohort would be expanded to a minimum of 3, and up to 6, patients in all subsequent cohorts. A Bayesian adaptive design, using all of the available data and considering the pharmacokinetics (PK) from a minimum of 2 or 3 patients enrolled into each dose cohort, was used from this point. Dose escalation was scheduled to be stopped at the maximum tolerated dose (MTD) (defined as 25% of patients in a cohort experiencing a dose-limiting toxicity [DLT] with the required precision [ratio of upper and lower 95% credible limits <5.0]), the maximum feasible dose (MFD) or the recommended Phase II dose (RP2D). Intra-patient dose escalation was permitted as long as predefined criteria were met, including that the planned next higher dose had to be declared tolerated by the SRC based on assessment of 2–6 evaluable patients.
The starting dose of PLD was 40 mg/m^2 intravenously once every 28 days for a maximum of 6 cycles. PLD dose could be escalated to 50 mg/m^2 or de-escalated to 30 mg/m^2 every 28 days with agreement from the SRC. […] Dose escalation was scheduled to be stopped at the MTD (defined as 30% of patients in a cohort experiencing a DLT with the required precision [ratio of upper and lower 95% credible limits <5.0]). Approximately 30 evaluable patients across five cohorts (n = 3–6 per cohort) were originally planned to provide an estimate of MTD.
Definitions of dose-limiting toxicity
DLTs were evaluated during Cycle 0 and Cycle 1 of treatment. Toxicity was graded according to the National Cancer Institute CTCAE v5.0.
A DLT was defined as an AE that occurs from the first dose of study treatment up to and including Cycle 1, Day 28 (the DLT assessment period) that is assessed as unrelated to the disease, intercurrent illness, or concomitant medications and that, despite optimal therapeutic interventions, meets any of the following criteria:
Haematological Toxicities:
• Grade 4 neutropenia lasting >4 days.
• Grade 4 thrombocytopenia.
• Grade 3 neutropenia (ANC ≥500 to <1000 cells/mm3) of any duration accompanied by fever ≥38.5 °C and/or systemic infection.
• Grade 3 thrombocytopenia (25,000 to <50,000/mm3) with bleeding
Non-haematological toxicities:
• Confirmed laboratory abnormalities
• Nausea or vomiting for more than three consecutive days despite administration of maximal anti-emetic therapy
• Diarrhoea for more than three consecutive days despite administration of maximal anti- […]
• QTc prolongation >500 milliseconds or QTcF prolongation from baseline by 60 milliseconds confirmed on at least two separate ECGs
• Any other toxicity that is greater than at baseline AND is clinically significant and/or […]
AND is judged to be a DLT by the SRC
• Any treatment-related event, including significant dose reductions, omissions or delays, judged to be a DLT by the SRC. Examples may include CTCAE Grade 2 toxicities that are clinically significant and/or unacceptable according to the investigator, toxicities that […]
the administration of study treatment in the subsequent cycle by ≥7 consecutive days DLT will not include the following:
• Transient isolated laboratory abnormalities which are not considered clinically significant and resolve to baseline within 72 hours without any intervention […]
• Toxicity unrelated to treatment e.g., related to the underlying disease or disease-related

[2] = test system: patients with advanced cancer; assay: Preliminary antitumour activity by RECIST v1.1 (best objective response, target lesion change, PFS);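 further: same imaging modality as baseline kept at every follow-up, response-evaluable patients had ≥1 measurable non-irradiated target lesion ≥10 mm longest diameter and received ≥1 study dose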
Experimental: The imaging method used at baseline had to be used at all follow-up visits. The following parameters were estimated: percentage best change in target lesion; duration of response; objective response rate (ORR); and progression-free survival (PFS).
Descriptive statistics were used for all variables, as appropriate, and calculated only when n ≥ 3. Where data were available for <3 patients, only minimum, maximum and number of observations were provided. Percentages were calculated using the analysis set total and for modules or doses, unless otherwise stated. […] PFS, including median time to PFS and PFS rate at a specific timepoint, was summarized using the Kaplan–Meier method. SAS® version 9.4 was used for all analyses. The PK analysis set included dosed patients for whom an adequate PK profile was obtained.

[3] = 12 patients evaluable for objective response

`Cc1cc2ncnn2cc1Nc1ncc2c(n1)n(C1CCOCC1)c(=O)n2C` [AZD7648, 7-Methyl-2-[(7-methyl[1,2,4]triazolo[1,5-a]pyridin-6-yl)amino]-9-(tetrahydro-2H-pyran-4-yl)-7,9-dihydro-8H-purin-8-one] was tested, and the “Any AE leading to death” value ([1]; 5 mg BID (n = 1)) was 0 n (%), the “Any AZD7648-related AE leading to death” value ([1]; 5 mg BID (n = 1)) was 0 n (%) and the “Any AE leading to death” value ([1]; 5 mg QD (n = 1)) was 0 n (%). For the same molecule, the “Any AZD7648-related AE leading to death” value ([1]; 5 mg QD (n = 1)) was 0 n (%), the “Any AE leading to death” value ([1]; 10 mg BID (n = 1)) was 0 n (%) and the “Any AZD7648-related AE leading to death” value ([1]; 10 mg BID (n = 1)) was 0 n (%). The “Any AE leading to death” value ([1]; 20 mg BID (n = 1)) was 0 n (%), the “Any AZD7648-related AE leading to death” value ([1]; 20 mg BID (n = 1)) was 0 n (%) and the “Any AE leading to death” value ([1]; 40 mg BID (n=3)) was 0 n (%). For the same molecule, the “Any AZD7648-related AE leading to death” value ([1]; 40 mg BID (n=3)) was 0 n (%), the “Any AE leading to death” value ([1]; 80 mg BID (n = 4)) was 1 (25.0) n (%) and the “Any AZD7648-related AE leading to death” value ([1]; 80 mg BID (n = 4)) was 0 n (%). The “Any AE leading to death” value ([1]; 160 mg BID (n=3)) was 0 n (%), the “Any AZD7648-related AE leading to death” value ([1]; 160 mg BID (n=3)) was 0 n (%) and the “TEAE Anaemia” value ([1]; Any grade) was 4 (28.6) n (%). The “TEAE Diarrhoea” value ([1]; Any grade) was 4 (28.6) n (%), the “TEAE Nausea” value ([1]; Any grade) was 4 (28.6) n (%) and the “TEAE Neutropenia” value ([1]; Any grade) was 2 (14.3) n (%). The “TEAE Urinary tract infection” value ([1]; Any grade) was 2 (14.3) n (%), the “TEAE Vomiting” value ([1]; Any grade) was 4 (28.6) n (%) and the “Any treatment-related grade 3/4 AE, related to AZD7648” value ([1]; all dose levels) was 4 (28.6) n (%). The Death ([1]; all dose levels) was 4 (28.6) n (%), the patients with nausea ([1]; all dose levels) was 28.6% and ~ 30% and the patients with neutropenia ([1]; all dose levels) was 14.3%. For the same molecule, the patients with vomiting ([1]; all dose levels) was 28.6% and ~ 30%, the “Any AE” value ([1]; human, in vivo) was 12 (85.7) n (%) and the “Any DLT” value ([1]; human, in vivo) was 1 (7.1) n (%). For the same molecule, the “Any SAE” value ([1]; human, in vivo) was 5 (35.7) n (%), the “TEAE Anaemia” value ([1]; human, in vivo) was 1 (7.1) n (%) and the “TEAE Diarrhoea” value ([1]; human, in vivo) was 1 (7.1) n (%). The “TEAE Nausea” value ([1]; human, in vivo) was 0 n (%), the “TEAE Neutropenia” value ([1]; human, in vivo) was 1 (7.1) n (%) and the “TEAE Urinary tract infection” value ([1]; human, in vivo) was 0 n (%). The “TEAE Vomiting” value ([1]; human, in vivo) was 0 n (%), the “patients with gastrointestinal disorders” value ([1]; human, in vivo) was 64.3% and the “patients who experienced TEAEs” value ([1]; human, in vivo, 2.9 months) was 85.7%. For the same molecule, the “patients with abdominal pain” value ([1]; human, in vivo, 2.9 months) was ~ 20%, the “patients with decreased appetite” value ([1]; human, in vivo, 2.9 months) was ~ 20% and the patients with fatigue ([1]; human, in vivo, 2.9 months) was ~ 20%. For the same molecule, the “maximum tolerated dose (MTD)” value ([1]; monotherapy, escalation paused at 160 mg BID continuous dosing) was “an MTD could not be declared”, the “DLT reported (nature)” value ([1]; one patient, AZD7648 160 mg BID) was “grade 4 increased alanine aminotransferase (ALT) and aspartate aminotransferase (AST)” and the “Best objective response: Complete response” value ([2]; 5 mg BID (n = 1)) was 0 n (%). The “Best objective response: Death” value ([2]; 5 mg BID (n = 1)) was 0 n (%), the “Best objective response: Disease progression” value ([2]; 5 mg BID (n = 1)) was 1 (100.0) n (%) and the “Best objective response: Not evaluable” value ([2]; 5 mg BID (n = 1)) was 0 n (%). The “Best objective response: Partial response” value ([2]; 5 mg BID (n = 1)) was 0 n (%), the “Best objective response: Stable disease” value ([2]; 5 mg BID (n = 1)) was 0 n (%) and the “Best objective response: Complete response” value ([2]; 5 mg QD (n = 1)) was 0 n (%). The “Best objective response: Death” value ([2]; 5 mg QD (n = 1)) was 0 n (%), the “Best objective response: Disease progression” value ([2]; 5 mg QD (n = 1)) was 0 n (%) and the “Best objective response: Not evaluable” value ([2]; 5 mg QD (n = 1)) was 0 n (%). The “Best objective response: Partial response” value ([2]; 5 mg QD (n = 1)) was 0 n (%), the “Best objective response: Stable disease” value ([2]; 5 mg QD (n = 1)) was 1 (100.0) n (%) and the “Best objective response: Complete response” value ([2]; 10 mg BID (n = 1)) was 0 n (%). The “Best objective response: Death” value ([2]; 10 mg BID (n = 1)) was 0 n (%), the “Best objective response: Disease progression” value ([2]; 10 mg BID (n = 1)) was 0 n (%) and the “Best objective response: Not evaluable” value ([2]; 10 mg BID (n = 1)) was 0 n (%). The “Best objective response: Partial response” value ([2]; 10 mg BID (n = 1)) was 0 n (%), the “Best objective response: Stable disease” value ([2]; 10 mg BID (n = 1)) was 1 (100.0) n (%) and the “Best objective response: Complete response” value ([2]; 20 mg BID (n = 1)) was 0 n (%). For the same molecule, the “Best objective response: Death” value ([2]; 20 mg BID (n = 1)) was 0 n (%), the “Best objective response: Disease progression” value ([2]; 20 mg BID (n = 1)) was 1 (100.0) n (%) and the “Best objective response: Not evaluable” value ([2]; 20 mg BID (n = 1)) was 0 n (%). For the same molecule, the “Best objective response: Partial response” value ([2]; 20 mg BID (n = 1)) was 0 n (%), the “Best objective response: Stable disease” value ([2]; 20 mg BID (n = 1)) was 0 n (%) and the “Best objective response: Complete response” value ([2]; 40 mg BID (n = 2)) was 0 n (%). For the same molecule, the “Best objective response: Death” value ([2]; 40 mg BID (n = 2)) was 1 (50.0) n (%), the “Best objective response: Disease progression” value ([2]; 40 mg BID (n = 2)) was 1 (50.0) n (%) and the “Best objective response: Not evaluable” value ([2]; 40 mg BID (n = 2)) was 0 n (%). For the same molecule, the “Best objective response: Partial response” value ([2]; 40 mg BID (n = 2)) was 0 n (%), the “Best objective response: Stable disease” value ([2]; 40 mg BID (n = 2)) was 0 n (%) and the “Best objective response: Complete response” value ([2]; 80 mg BID (n = 4)) was 0 n (%). The “Best objective response: Death” value ([2]; 80 mg BID (n = 4)) was 1 (25.0) n (%), the “Best objective response: Disease progression” value ([2]; 80 mg BID (n = 4)) was 1 (25.0) n (%) and the “Best objective response: Not evaluable” value ([2]; 80 mg BID (n = 4)) was 1 (25.0) n (%). The “Best objective response: Partial response” value ([2]; 80 mg BID (n = 4)) was 0 n (%), the “Best objective response: Stable disease” value ([2]; 80 mg BID (n = 4)) was 1 (25.0) n (%) and the “Best objective response: Complete response” value ([2]; 160 mg BID (n = 2)) was 0 n (%). For the same molecule, the “Best objective response: Death” value ([2]; 160 mg BID (n = 2)) was 0 n (%), the “Best objective response: Disease progression” value ([2]; 160 mg BID (n = 2)) was 1 (50.0) n (%) and the “Best objective response: Not evaluable” value ([2]; 160 mg BID (n = 2)) was 0 n (%). For the same molecule, the “Best objective response: Partial response” value ([2]; 160 mg BID (n = 2)) was 0 n (%), the “Best objective response: Stable disease” value ([2]; 160 mg BID (n = 2)) was 1 (50.0) n (%) and the “patients who died due to disease progression” value [2, 3] was 16.7%. The “patients with RECIST disease progression” value [2, 3] was 41.7%, the “patients with RECIST stable disease” value [2, 3] was 33.3% and the “Best objective response: Complete response” value ([2]; All cohorts of the module) was 0 n (%). For the same molecule, the “Best objective response: Death” value ([2]; All cohorts of the module) was 2 (16.7) n (%), the “Best objective response: Disease progression” value ([2]; All cohorts of the module) was 5 (41.7) n (%) and the “Best objective response: Not evaluable” value ([2]; All cohorts of the module) was 1 (8.3) n (%). For the same molecule, the “Best objective response: Partial response” value ([2]; All cohorts of the module) was 0 n (%), the “Best objective response: Stable disease” value ([2]; All cohorts of the module) was 4 (33.3) n (%) and the “Median PFS” value ([2]; Kaplan–Meier, all dose levels) was 1.91 months. The “PFS rate at 6 months” value ([2]; Kaplan–Meier, all dose levels) was 23.08%, the RECIST response observed ([2]; all dose levels) was “No responses; also recorded: No patient had a RECIST complete or partial response” and the “percentage change in target lesion size from baseline” value ([2]; one patient with stable disease, 80 mg BID) was −29.2%. For the same molecule, the “best percentage change from baseline in target lesion size, increase of the patient capped in the waterfall plot” value ([2]; single patient) was 108.33%.
